For test [1], the system named is HCC827-ER1 subcutaneous xenograft. The conditions noted are these: s.c. HCC827-ER1 tumors, n=5/group. The protocol:
(§1) Tumour measurements and body weights were taken 3 times weekly and treatment initiated when the tumours reached a mean volume of ˜200 mm^3 (n=5 per group).
(§2) Mice were anaesthetised and transported to the SARRP where CBCT (cone beam computed tomography) images were acquired. Using the MuriSlice software the isocenter of the tumour was identified and aligned with the central axis of the beam. […] A tolerability was performed initially to evaluate 3 Gy/day×5 days for 2 week.

For test [2], the system named is HCC827 subcutaneous xenograft. The settings on record: s.c. HCC827 tumours, n=5/group, Erlotinib 25 mg/kg po QD. The protocol: as §1, §2

Entries after “also recorded” stand apart in the source; their conditions may differ.

Turning to `C[C@@H](Oc1cc(-c2cnn(C3CCNCC3)c2)cnc1N)c1c(Cl)ccc(F)c1Cl` [Crizotinib, 3-[(1R)-1-(2,6-dichloro-3-fluorophenyl)ethoxy]-5-(1-piperidin-4-ylpyrazol-4-yl)pyridin-2-amine], the “tumor growth inhibition compared with vehicle/control” value in test [1] (drug alone, p<0.001, Erlotinib 25 mg/kg po QD) is listed as approximately 60%. Moreover, the “tumor regression, drug combined with irradiation” value in test [1] is “tumour regression was restored; also recorded: tumor regression was restored”. Besides, the “effect on tumor volume, drug alone” value in test [2] is given as “no effect”.
For `C#Cc1cccc(Nc2ncnc3cc(OCCOC)c(OCCOC)cc23)c1` [Erlotinib, N-(3-ethynylphenyl)-6,7-bis(2-methoxyethoxy) quinazolin-4-amine], the “tumor regression, drug alone” value in test [1] (drug alone) was “no tumour regression; also recorded: no tumor regression”. Moreover, the “tumor regression, drug combined with irradiation” value in test [1] was “tumour regression was restored; also recorded: tumor regression was restored”.

The values above are taken from patent US9937179B2, “Combined treatment for cancer resistant to an epidermal growth factor receptor kinase inhibitor” (Pre Clinical Oncology Services Ltd., priority 2014, dated 2018).
